Data from patent US11767323B2, “Tricyclic pyridone compounds as JAK2 V617F inhibitors” (Incyte Corporation, priority 2020, dated 2023).

Tests used:
[1] = biological target: pseudo-kinase domain (JH2, amino-acids 536-812) of human Wild Type JAK2 (Homo sapiens (Human), UniProt O60674, F794H/W659A/W777A); test: JAK2 LanthaScreen JH2-WT Binding Assay; details: JAK2 JH2-WT 0.145 nM, 50 nM tracer, 1 hour at 25° C.; read-out: JH2 BIND WT IC50
Protocol: Example B. JAK2 LanthaScreen JH2-WT Binding Assay
(§1) JAK2 JH2-WT binding assay utilizes pseudo-kinase domain (JH2, amino-acids 536-812 with 3 surface mutations W659A, W777A, F794H) of human Wild Type JAK2 expressed as C-terminal His-Avi-tagged, biotinylated protein in a baculovirus expression system (BPS Bioscience, Catalog #79463). The assay was conducted in black 384-well polystyrene plates in a final reaction volume of 20 μL. JAK2 JH2-WT (0.145 nM) was incubated with compounds (100 nL serially diluted in DMSO) in the presence of 50 nM Fluorescent JAK2-JH2 Tracer (MedChem Express Catalog #HY-102055) and 0.25 nM Streptavidin-Tb cryptate (Cisbio Part #610SATLB) in assay buffer (50 mM Tris, pH=7.5, 10 mM MgCl2, 0.01% Brij-35, 0.1% BSA, 1 mM EGTA, 5% Glycerol and 5 mM DTT). Non-specific binding was accessed in the presence of 2 mM ATP. After incubation for 1 hour at 25° C., LanthaScreen signals were read on a PHERAstar FS plate reader (BMG LAB TECH). Data was analyzed with IDBS XLfit and GraphPad Prism 5.0 software using a four parameter dose response curve to determine IC50 for each compound.

[2] = biological target: catalytic domain (JH1, amino acids 808-1132) of human JAK2 (Homo sapiens (Human), UniProt O60674); test: JAK2 HTRF Enzyme Activity Assay; type: biochemical; details: JAK2 0.015 nM, ATP (30 μM or 1 mM), 60 minutes at 25° C.
Chain of catalytic domain (JH1, amino acids 808-1132) of human JAK2 (O60674 808-1132): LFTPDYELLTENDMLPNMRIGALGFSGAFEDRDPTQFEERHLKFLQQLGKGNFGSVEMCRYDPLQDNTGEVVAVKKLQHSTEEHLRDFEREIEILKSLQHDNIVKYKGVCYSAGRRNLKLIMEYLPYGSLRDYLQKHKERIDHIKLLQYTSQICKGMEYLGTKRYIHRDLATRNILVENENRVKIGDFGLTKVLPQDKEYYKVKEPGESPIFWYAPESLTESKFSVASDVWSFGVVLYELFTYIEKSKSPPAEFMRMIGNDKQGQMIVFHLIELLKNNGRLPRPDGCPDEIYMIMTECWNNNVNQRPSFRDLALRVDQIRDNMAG
Protocol: Example D. JAK2 HTRF Enzyme Activity Assay
JAK2 enzyme activity assays utilize catalytic domain (JH1, amino acids 808-1132) of human JAK2 expressed as N-terminal His-tagged protein in a baculovirus expression system (BPS Bioscience, Catalog #40450). The assays was conducted in black 384-well polystyrene plates in a final reaction volume of 20 μL. JAK2 (0.015 nM) was incubated with compounds (100 nL serially diluted in DMSO) in the presence of ATP (30 μM or 1 mM) and 500 nM Biotin-labeled EQEDEPEGDYFEWLE (SEQ ID NO.: 1) peptide (BioSource International, custom synthesis) in assay buffer (50 mM Tris, pH=7.5, 10 mM MgCl2, 0.01% Brij-35, 0.1% BSA, 1 mM EGTA, 5% Glycerol and 5 mM DTT) for 60 minutes at 25° C. The reactions were stopped by the addition of 10 μL of detection buffer (50 mM Tris, pH 7.8, 0.5 mg/mL BSA, 150 mM NaCl), supplemented with EDTA, LANCE Eu-W1024 anti-phosphotyrosine (PY20), (PerkinElmer, Catalog #AD0067) and Streptavidin SureLight APC (PerkinElmer Catalog #CR130-100), for a final concentration of 15 mM, 1.5 nM and 75 nM, respectively. HTRF signals were read after 30 minutes incubation at room temperature on a PHERAstar FS plate reader (BMG LAB TECH). Data was analyzed with IDBS XLfit and GraphPad Prism 5.0 software using a four parameter dose response curve to determine IC50 for each compound.

[3] = biological target: catalytic domain (JH1, amino acids 826-1132) of human JAK2 (Homo sapiens (Human), UniProt O60674); test: JAK2 LanthaScreen JH1 Binding Assay; details: JAK2 JH1 1.5 nM, 50 nM tracer, 2 hours at 25° C.; read-out: JH1 BIND IC50
Chain of catalytic domain (JH1, amino acids 826-1132) of human JAK2 (O60674 826-1132): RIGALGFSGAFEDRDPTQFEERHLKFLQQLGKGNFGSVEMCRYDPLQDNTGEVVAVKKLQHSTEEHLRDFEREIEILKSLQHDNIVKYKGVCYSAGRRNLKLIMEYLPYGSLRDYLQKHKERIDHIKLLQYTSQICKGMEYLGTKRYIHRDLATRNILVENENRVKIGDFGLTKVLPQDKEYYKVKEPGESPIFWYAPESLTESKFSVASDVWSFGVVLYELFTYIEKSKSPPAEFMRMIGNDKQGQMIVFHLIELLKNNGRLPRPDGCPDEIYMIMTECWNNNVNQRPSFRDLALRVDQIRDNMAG
Protocol: Example A. JAK2 LanthaScreen JH1 Binding Assay
JAK2 JH1 binding assay utilizes catalytic domain (JH1, amino acids 826-1132) of human JAK2 expressed as N-terminal FLAG-tagged, biotinylated protein in a baculovirus expression system (Carna Biosciences, Product #08-445-20N). The assay was conducted in black 384-well polystyrene plates in a final reaction volume of 20 μL. JAK2 JH1 (1.5 nM) was incubated with compounds (100 nL serially diluted in DMSO) in the presence of 50 nM Fluorescent JAK2-JH1 Tracer and 0.5 nM Streptavidin-Tb cryptate (Cisbio Part #610SATLB) in assay buffer (50 mM Tris, pH=7.5, 10 mM MgCl2, 0.01% Brij-35, 0.1% BSA, 1 mM EGTA, 5% Glycerol and 5 mM DTT). Non-specific binding was accessed in the presence of 2 mM ATP. After incubation for 2 hours at 25° C., LanthaScreen signals were read on a PHERAstar FS plate reader (BMG LABTECH). Data was analyzed with IDBS XLfit and GraphPad Prism 5.0 software using a four parameter dose response curve to determine IC50 for each compound.

[4] = biological target: pseudo-kinase domain (JH2, amino-acids 536-812) of human V617F mutant JAK2 (Homo sapiens (Human), UniProt O60674, F794H/V617F/W659A/W777A); test: JAK2 LanthaScreen JH2-V617F Binding Assay; details: JAK2 JH2-V617F 0.26 nM, 50 nM tracer, 1 hour at 25° C.; read-out: JH2 BIND V617F IC50
Chain of pseudo-kinase domain (JH2, amino-acids 536-812) of human V617F mutant JAK2 (O60674 536-812 V617F/W659A/W777A/F794H): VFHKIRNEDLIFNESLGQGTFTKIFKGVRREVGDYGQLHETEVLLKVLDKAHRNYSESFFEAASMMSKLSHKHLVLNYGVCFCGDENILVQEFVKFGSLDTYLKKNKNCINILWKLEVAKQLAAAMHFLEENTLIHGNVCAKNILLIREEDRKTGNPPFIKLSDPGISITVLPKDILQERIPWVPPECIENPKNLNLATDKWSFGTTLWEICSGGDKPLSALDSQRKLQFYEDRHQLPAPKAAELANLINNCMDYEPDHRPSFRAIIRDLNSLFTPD
Protocol: Example C. JAK2 LanthaScreen JH2-V617F Binding Assay
as §1, with “JH2-V617F” for “JH2-WT”, “V617F mutant” for “Wild Type”, “#79498).” for “#79463).”, “JH2-V617F (0.26” for “JH2-WT (0.145”, “LABTECH).” for “LAB TECH).”

Chain of pseudo-kinase domain (JH2, amino-acids 536-812) of human Wild Type JAK2 (O60674 536-812 W659A/W777A/F794H): as the sequence (O60674 536-812 V617F/W659A/W777A/F794H) above, with F82V counted along it

Compound: Cn1c(=O)c(-c2ccc(C(=O)O)cc2)cc2c3cc(-c4ccc(CN5CCC(S(C)(=O)=O)CC5)cc4)[nH]c3ncc21 [Example 14, 4-(6-Methyl-2-(4-((4-(methylsulfonyl)piperidin-1-yl)methyl)phenyl)-7-oxo-6,7-dihydro-3H-pyrrolo[3,2-f][1,7]naphthyridin-8-yl)benzoic acid]
- IC50 [1]: ≤ 100 nM
- IC50 [2]: 100 to 500 nM
- IC50 [3]: 100 to 500 nM
- IC50 [4]: ≤ 100 nM

Compound: CCn1c(=O)c(-c2ccc(C(=O)O)cc2)cc2c3cc(-c4ccc(CN5CCC(S(C)(=O)=O)CC5)cc4)[nH]c3ncc21 [Example 15, 4-(6-Ethyl-2-(4-((4-(methylsulfonyl)piperidin-1-yl)methyl)phenyl)-7-oxo-6,7-dihydro-3H-pyrrolo[3,2-f][1,7]naphthyridin-8-yl)benzoic acid]
- IC50 [1]: 500 to 1000 nM
- IC50 [2]: 1000 to 10000 nM
- IC50 [3]: 1000 to 10000 nM
- IC50 [4]: 1000 to 10000 nM

Compound: CCc1c(-c2ccc(C(=O)O)cc2)c(=O)n(C)c2cnc3[nH]c(-c4ccc(CN5CCC(S(C)(=O)=O)CC5)cc4)cc3c12 [Example 16, 4-(9-Ethyl-6-methyl-2-(4-((4-(methylsulfonyl)piperidin-1-yl)methyl)phenyl)-7-oxo-6,7-dihydro-3H-pyrrolo[3,2-f][1,7]naphthyridin-8-yl)benzoic acid]
- IC50 [1]: ≤ 100 nM
- IC50 [2]: 100 to 500 nM
- IC50 [3]: 100 to 500 nM
- IC50 [4]: ≤ 100 nM

Compound: Cc1cc(=O)[nH]c2cnc3[nH]c(-c4ccc(CN5CCC(S(C)(=O)=O)CC5)cc4)cc3c12 [Example 17, 9-Methyl-2-(4-((4-(methylsulfonyl)piperidin-1-yl)methyl)phenyl)-3,6-dihydro-7H-pyrrolo[3,2-f][1,7]naphthyridin-7-one]
- IC50 [1]: 1000 to 10000 nM
- IC50 [2]: 1000 to 10000 nM
- IC50 [3]: 1000 to 10000 nM
- IC50 [4]: 1000 to 10000 nM

Compound: Cc1c(-c2ccc([N+](=O)[O-])cc2)c(=O)[nH]c2cnc3[nH]c(-c4ccc(CN5CCC(S(C)(=O)=O)CC5)cc4)cc3c12 [Example 18, 9-Methyl-2-(4-((4-(methylsulfonyl)piperidin-1-yl)methyl)phenyl)-8-(4-nitrophenyl)-3,6-dihydro-7H-pyrrolo[3,2-f][1,7]naphthyridin-7-one]
- IC50 [1]: 500 to 1000 nM
- IC50 [2]: 1000 to 10000 nM
- IC50 [3]: 1000 to 10000 nM
- IC50 [4]: 1000 to 10000 nM

Compound: Cc1c(-c2ccc3c(c2)OCCO3)c(=O)[nH]c2cnc3[nH]c(-c4ccc(CN5CCC(S(C)(=O)=O)CC5)cc4)cc3c12 [Example 19, 8-(2,3-Dihydrobenzo[6][1,4]dioxin-6-yl)-9-methyl-2-(4-((4-(methylsulfonyl)piperidin-1-yl)methyl)phenyl)-3,6-dihydro-7H-pyrrolo[3,2-f][1,7]naphthyridin-7-one]
- IC50 [1]: 1000 to 10000 nM
- IC50 [2]: 1000 to 10000 nM
- IC50 [3]: 1000 to 10000 nM
- IC50 [4]: 1000 to 10000 nM

Compound: COc1c(-c2ccccc2)c(=O)n(C)c2cnc3[nH]c(-c4ccc(CN5CCC(S(C)(=O)=O)CC5)cc4)cc3c12 [Example 20, 9-Methoxy-6-methyl-2-(4-((4-(methylsulfonyl)piperidin-1-yl)methyl)phenyl)-8-phenyl-3,6-dihydro-7H-pyrrolo[3,2-f][1,7]naphthyridin-7-one]
- IC50 [1]: ≤ 100 nM
- IC50 [2]: ≤ 100 nM
- IC50 [3]: ≤ 100 nM
- IC50 [4]: 100 to 500 nM

Compound: Cc1cc(-c2c(C3CCOCC3)c3c4cc(-c5ccc(CN6CCC(S(C)(=O)=O)CC6)cc5)[nH]c4ncc3n(C)c2=O)on1 [Example 21, 6-Methyl-8-(3-methylisoxazol-5-yl)-2-(4-((4-(methylsulfonyl)piperidin-1-yl)methyl)phenyl)-9-(tetrahydro-2H-pyran-4-yl)-3,6-dihydro-7H-pyrrolo[3,2-f][1,7]naphthyridin-7-one]
- IC50 [1]: ≤ 100 nM
- IC50 [2]: 100 to 500 nM
- IC50 [3]: 100 to 500 nM
- IC50 [4]: ≤ 100 nM

Compound: COC1CCC(c2c(-c3cc(C)no3)c(=O)n(C)c3cnc4[nH]c(-c5cnn(C)c5)cc4c23)CC1 (stereo not drawn) [Example 22, 9-(4-Methoxycyclohexyl)-6-methyl-2-(1-methyl-1H-pyrazol-4-yl)-8-(3-methylisoxazol-5-yl)-3,6-dihydro-7H-pyrrolo[3,2-f][1,7]naphthyridin-7-one]
- IC50 [1]: ≤ 100 nM
- IC50 [2]: 100 to 500 nM
- IC50 [3]: 100 to 500 nM
- IC50 [4]: ≤ 100 nM

Compound: Cc1cc(-c2c(-c3ccccc3)c3c4cc(-c5cnn(C)c5)[nH]c4ncc3n(C)c2=O)on1 [Example 23, 6-methyl-2-(1-methyl-1H-pyrazol-4-yl)-8-(3-methylisoxazol-5-yl)-9-phenyl-3,6-dihydro-7H-pyrrolo[3,2-f][1,7]naphthyridin-7-one]
- IC50 [1]: ≤ 100 nM
- IC50 [2]: 100 to 500 nM
- IC50 [3]: 100 to 500 nM
- IC50 [4]: ≤ 100 nM

Compound: COC1CCC(c2cc(=O)n(C)c3cnc4[nH]c(-c5cnn(C)c5)cc4c23)CC1 (stereo not drawn) [Example 24, 9-(4-methoxycyclohexyl)-6-methyl-2-(1-methyl-1H-pyrazol-4-yl)-3,6-dihydro-7H-pyrrolo[3,2-f][1,7]naphthyridin-7-one]
- IC50 [1]: ≤ 100 nM
- IC50 [2]: ≤ 100 nM
- IC50 [3]: ≤ 100 nM
- IC50 [4]: ≤ 100 nM

Compound: Cc1cc(-c2c(-c3ccc(C(=O)NCCO)cc3)c3c4cc(-c5cnn(C)c5)[nH]c4ncc3n(C)c2=O)on1 [Example 25, N-(2-hydroxyethyl)-4-(6-methyl-2-(1-methyl-1H-pyrazol-4-yl)-8-(3-methylisoxazol-5-yl)-7-oxo-6,7-dihydro-3H-pyrrolo[3,2-f][1,7]naphthyridin-9-yl)benzamide]
- IC50 [1]: ≤ 100 nM
- IC50 [2]: 100 to 500 nM
- IC50 [3]: 500 to 1000 nM
- IC50 [4]: ≤ 100 nM
